Reference: ChEMBL document CHEMBL1201862, “PubChem BioAssay data set” (2004)
Activity calls are given as the source filed them.

Tests used:
[1] = biological target: Cytochrome P450 2D6 (Homo sapiens, UniProt P10635);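 note: CYP2D6 member of a cytochrome P450 panel assay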
[2] = biological target: T1, Cytochrome P450 3A4 (Homo sapiens, UniProt P08684)
[3] = biological target: Beta-galactosidase (Escherichia coli, UniProt Q8VNN2); assay: PubChem AID 485352; type: functional
[4] = biological target: T2, Type-1 angiotensin II receptor (Homo sapiens, UniProt P30556); assay: AT1 receptor antagonists, dose response, selectivity assay for APJ receptor antagonist project, cell-based, uHTS hits (AID 463214); type: functional;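 note: antagonist potency against angiotensin II stimulated AT1 response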
T2 sequence (P30556 whole entry): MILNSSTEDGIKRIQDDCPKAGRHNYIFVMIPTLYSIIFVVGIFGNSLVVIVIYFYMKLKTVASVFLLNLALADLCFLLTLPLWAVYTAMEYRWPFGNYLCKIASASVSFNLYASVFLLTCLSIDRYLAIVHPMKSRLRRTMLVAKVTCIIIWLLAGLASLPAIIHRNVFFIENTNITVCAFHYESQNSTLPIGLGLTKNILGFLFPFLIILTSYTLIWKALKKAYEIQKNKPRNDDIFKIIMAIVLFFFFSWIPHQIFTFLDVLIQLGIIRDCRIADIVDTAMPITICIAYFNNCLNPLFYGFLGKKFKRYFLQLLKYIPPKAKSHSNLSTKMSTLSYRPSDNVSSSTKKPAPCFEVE

[5] = system: HeLa; assay: HeLa cell cytotoxicity, dose response, cytotoxicity control for MITF activator project, CellTiter-Glo luminescence, cherry-pick samples (AID 540259); type: functional, cell-based; conditions: Homo sapiens
[6] = biological target: T1, Cytochrome P450 3A4; conditions: Potency
[7] = biological target: T3, Insulin-degrading enzyme (Homo sapiens, UniProt P14735); assay: activators of recombinant IDE enzyme, dose response, counter-screen for IDE activator project, biochemical, fluorescence polarization (AID 588681)
T3 sequence (P14735 whole entry): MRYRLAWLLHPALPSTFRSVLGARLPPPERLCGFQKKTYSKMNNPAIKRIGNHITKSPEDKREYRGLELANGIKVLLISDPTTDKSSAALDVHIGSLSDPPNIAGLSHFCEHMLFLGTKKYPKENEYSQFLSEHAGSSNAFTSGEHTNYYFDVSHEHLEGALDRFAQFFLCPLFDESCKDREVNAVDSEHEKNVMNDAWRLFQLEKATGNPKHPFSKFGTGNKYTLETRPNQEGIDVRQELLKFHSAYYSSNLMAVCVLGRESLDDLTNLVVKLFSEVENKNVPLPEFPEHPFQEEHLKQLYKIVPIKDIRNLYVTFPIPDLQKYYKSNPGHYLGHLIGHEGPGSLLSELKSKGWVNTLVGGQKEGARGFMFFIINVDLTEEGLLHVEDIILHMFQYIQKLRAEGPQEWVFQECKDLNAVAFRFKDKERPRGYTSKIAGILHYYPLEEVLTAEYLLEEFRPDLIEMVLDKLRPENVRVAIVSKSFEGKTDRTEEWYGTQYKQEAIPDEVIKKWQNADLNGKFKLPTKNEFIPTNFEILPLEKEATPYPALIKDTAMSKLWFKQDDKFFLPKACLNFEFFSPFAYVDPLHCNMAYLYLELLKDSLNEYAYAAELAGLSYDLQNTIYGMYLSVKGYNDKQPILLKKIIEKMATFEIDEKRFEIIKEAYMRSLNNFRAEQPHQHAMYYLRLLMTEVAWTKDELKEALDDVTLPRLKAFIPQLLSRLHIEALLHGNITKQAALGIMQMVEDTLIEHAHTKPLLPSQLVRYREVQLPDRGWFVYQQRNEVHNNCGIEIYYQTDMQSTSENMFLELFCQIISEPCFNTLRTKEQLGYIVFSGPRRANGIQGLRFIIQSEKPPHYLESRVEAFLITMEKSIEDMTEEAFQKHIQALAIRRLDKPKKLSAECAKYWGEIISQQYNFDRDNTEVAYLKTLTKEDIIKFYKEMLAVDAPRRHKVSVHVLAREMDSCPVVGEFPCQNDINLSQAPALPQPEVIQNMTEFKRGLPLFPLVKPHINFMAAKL

[8] = biological target: T3, Insulin-degrading enzyme; assay: activators of endogenous IDE in HEK cells, dose response, cell-based, fluorescence polarization (AID 588439); type: functional
[9] = system: HEK293; assay: HEK cell cytotoxicity by LDH release, dose response, cytotoxicity control for IDE activator project, fluorescence, HEK cells (AID 588440); type: functional, cell-based; conditions: Homo sapiens;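 note: cytotoxicity by LDH release measuring loss of membrane integrity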
[10] = biological target: T4, Endoribonuclease toxin MazF (Escherichia coli K-12, UniProt P0AE70); assay: fluorescent RNA oligo signal without MazF, dose response, counter-screen for MazEF activator project, biochemical, fluorescence, single-stranded RNase substrate (AID 588502); type: functional
T4 sequence (P0AE70 whole entry): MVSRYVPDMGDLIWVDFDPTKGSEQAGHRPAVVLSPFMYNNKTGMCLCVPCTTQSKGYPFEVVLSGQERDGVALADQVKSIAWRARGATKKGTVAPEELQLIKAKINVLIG

[11] = system: HEK293; assay: optical interference in Abeta FP readout, dose response, artefact control for IDE activator project, biochemical, fluorescence polarization (AID 588442); type: functional, cell-based; conditions: Homo sapiens
[12] = biological target: T4, Endoribonuclease toxin MazF; assay: MazF toxin RNase activators, dose response, biochemical, fluorescence, single-stranded RNA substrate, uHTS hits (AID 588481); type: functional
[13] = MC4R antagonists, dose response, counter-screen for LGR2 antagonist project, cell-based, plate reader, cherry pick (AID 743444); type: functional;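 note: transfected HEK 293 cells stimulated with alpha-MSH peptide; potency of inhibitors of the alpha-MSH evoked signal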
[14] = A549 cell cytotoxicity, dose response, cytotoxicity control, plate reader, cherry-pick, antagonist series (AID 743412); type: functional, cell-based
[15] = nonselective inhibitors of cellular cAMP signaling, dose response, counter-screen for MC4R biased antagonist project, cell-based, TR-FRET cAMP detection (AID 602305); type: functional;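 note: U2OS cells stimulated with forskolin near its EC80 as the cAMP inducer; potency is for inhibition of forskolin-stimulated cAMP signaling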
[16] = biological target: Melanocortin receptor 4 (Homo sapiens, UniProt P32245); assay: MC4R antagonist potency on cAMP, dose response, cell-based, TR-FRET, biased antagonists (AID 602298); type: functional;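 note: antagonist potency against agonist-stimulated cAMP production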
[17] = HEK293 cell cytotoxicity, dose response, cytotoxicity control, plate reader, cherry-picked samples (AID 743446); type: functional, cell-based
[18] = LGR2 antagonists, dose response, cell-based, HEK293, CRE-luciferase reporter, cherry pick, set 2 (AID 743343); type: functional;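 note: transfected cells were stimulated with diluted bursicon conditioned medium after compound addition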
[19] = HepG2 cell cytotoxicity, dose response, cytotoxicity control, plate reader, cherry-pick, antagonist series (AID 743416); type: functional, cell-based

T1 sequence (P08684 whole entry): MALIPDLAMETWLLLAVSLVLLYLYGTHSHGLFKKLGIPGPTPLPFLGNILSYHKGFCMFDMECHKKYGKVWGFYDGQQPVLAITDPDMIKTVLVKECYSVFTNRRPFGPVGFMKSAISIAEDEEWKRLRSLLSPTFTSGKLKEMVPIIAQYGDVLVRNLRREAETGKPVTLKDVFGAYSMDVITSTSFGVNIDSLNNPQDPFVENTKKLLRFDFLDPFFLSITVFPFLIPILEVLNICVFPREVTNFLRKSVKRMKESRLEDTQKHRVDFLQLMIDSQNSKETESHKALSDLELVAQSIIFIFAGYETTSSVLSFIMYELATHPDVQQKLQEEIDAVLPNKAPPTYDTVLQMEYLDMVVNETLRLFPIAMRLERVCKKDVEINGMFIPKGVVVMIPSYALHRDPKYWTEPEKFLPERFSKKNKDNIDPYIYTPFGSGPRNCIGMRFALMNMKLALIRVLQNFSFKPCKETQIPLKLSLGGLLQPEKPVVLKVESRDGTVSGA
Cytochrome P450 2D6, sequence (P10635 whole entry): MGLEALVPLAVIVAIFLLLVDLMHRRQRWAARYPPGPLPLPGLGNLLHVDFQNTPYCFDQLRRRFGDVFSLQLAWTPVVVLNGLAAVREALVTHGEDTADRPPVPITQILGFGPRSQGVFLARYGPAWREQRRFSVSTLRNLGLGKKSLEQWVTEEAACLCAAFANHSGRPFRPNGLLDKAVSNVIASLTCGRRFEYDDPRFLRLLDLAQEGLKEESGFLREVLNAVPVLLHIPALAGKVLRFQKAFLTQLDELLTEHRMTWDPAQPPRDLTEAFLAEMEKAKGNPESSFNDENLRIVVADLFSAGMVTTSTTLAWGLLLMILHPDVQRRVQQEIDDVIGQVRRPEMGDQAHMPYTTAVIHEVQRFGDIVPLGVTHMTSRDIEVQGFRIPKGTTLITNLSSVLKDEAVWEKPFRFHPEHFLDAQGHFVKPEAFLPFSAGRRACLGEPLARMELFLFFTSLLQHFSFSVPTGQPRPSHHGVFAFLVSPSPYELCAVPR
Beta-galactosidase, sequence (Q8VNN2 whole entry): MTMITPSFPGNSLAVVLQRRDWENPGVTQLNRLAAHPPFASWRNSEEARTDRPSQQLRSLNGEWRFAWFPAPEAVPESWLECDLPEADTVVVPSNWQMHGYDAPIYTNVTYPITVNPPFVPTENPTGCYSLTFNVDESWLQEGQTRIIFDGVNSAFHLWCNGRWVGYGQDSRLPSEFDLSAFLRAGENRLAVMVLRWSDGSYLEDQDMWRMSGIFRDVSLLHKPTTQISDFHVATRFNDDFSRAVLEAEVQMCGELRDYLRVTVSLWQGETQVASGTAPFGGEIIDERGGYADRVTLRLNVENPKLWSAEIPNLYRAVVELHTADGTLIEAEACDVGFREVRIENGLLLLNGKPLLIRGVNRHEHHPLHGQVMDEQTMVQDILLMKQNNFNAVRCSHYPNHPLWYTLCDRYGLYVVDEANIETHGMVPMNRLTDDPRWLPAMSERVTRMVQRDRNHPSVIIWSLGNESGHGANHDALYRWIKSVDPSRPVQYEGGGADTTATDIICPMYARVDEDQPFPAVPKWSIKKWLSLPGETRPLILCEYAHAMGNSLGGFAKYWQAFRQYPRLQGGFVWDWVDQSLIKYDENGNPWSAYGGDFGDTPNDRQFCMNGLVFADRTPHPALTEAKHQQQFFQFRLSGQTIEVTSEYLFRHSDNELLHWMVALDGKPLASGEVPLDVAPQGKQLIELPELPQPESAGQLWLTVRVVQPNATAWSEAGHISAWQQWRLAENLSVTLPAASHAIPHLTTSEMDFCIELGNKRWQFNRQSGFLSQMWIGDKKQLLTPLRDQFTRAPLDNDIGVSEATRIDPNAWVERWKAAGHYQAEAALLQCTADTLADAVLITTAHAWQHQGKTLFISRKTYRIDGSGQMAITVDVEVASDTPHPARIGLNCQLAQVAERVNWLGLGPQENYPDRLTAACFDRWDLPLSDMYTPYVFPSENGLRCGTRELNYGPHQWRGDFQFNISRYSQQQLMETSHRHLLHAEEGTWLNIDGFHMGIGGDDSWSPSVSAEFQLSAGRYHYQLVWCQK
Melanocortin receptor 4, sequence (P32245 whole entry): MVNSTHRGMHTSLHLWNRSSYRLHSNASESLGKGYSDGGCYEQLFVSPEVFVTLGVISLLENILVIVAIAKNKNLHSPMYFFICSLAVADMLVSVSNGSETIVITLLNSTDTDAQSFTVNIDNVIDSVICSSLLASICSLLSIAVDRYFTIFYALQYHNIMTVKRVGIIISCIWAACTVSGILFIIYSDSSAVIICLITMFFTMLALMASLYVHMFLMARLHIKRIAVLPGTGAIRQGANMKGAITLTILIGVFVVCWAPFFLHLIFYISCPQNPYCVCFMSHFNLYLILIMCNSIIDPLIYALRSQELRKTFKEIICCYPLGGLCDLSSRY

Which AC50 [1] does the source give for O=C(NNS(=O)(=O)c1ccc(Cl)cc1)C1CCN(Cc2ccccc2)CC1 here?
The AC50 was 1 µM (inconclusive).

What about the AC50 [2] of the same molecule?
The AC50 was “inconclusive”.

Which EC50 [3] does the source give for Cc1ccc(OCCN2C(=O)c3ccccc3C2=O)c([N+](=O)[O-])c1 here?
Its EC50 is > 40 µM (inactive).

What about the IC50 [4] of the same molecule?
Its IC50 is 9.04 µM (active).

With O=C(c1cnccn1)N1CCC2(CC1)CCN(c1ncccn1)CC2 as the molecule, how does the AC50 [2] read?
The AC50 was “inconclusive”.

For O=C(N=Nc1c(O)n(Cc2ccccc2)c2ccccc12)c1ccc(O)cc1, which AC50 [5] is on record?
Its AC50 is 39.7 µM (active).

With Oc1ccc2c(c1)OCC1(O)Cc3cc(O)c(O)cc3C21 (stereo not given) as the molecule, how does the AC50 [6] read?
The AC50 was 31.6 µM (inconclusive).

And the EC50 [7]?
Its EC50 is > 54.7 µM (inactive).

What about the EC50 [8] of the same molecule?
The EC50 was > 54.7 µM (inactive).

And the IC50 [9]?
Its IC50 is 85.1 µM (inactive).

And the EC50 [10]?
Its EC50 is 3.96 µM (active).

What about the EC50 [11] of the same molecule?
The EC50 was 53.6 µM (inactive).

And the EC50 [12]?
Its EC50 is > 99 µM (inactive).

For Cc1ccccc1CN1Cc2cnnn2-c2ccccc2C1C#N (stereo not given), which AC50 [13] is on record?
Its AC50 is 8.97 µM (active).

What about the AC50 [14] of the same molecule?
Its AC50 is 20.9 µM (active).

What about the IC50 [15] of the same molecule?
Its IC50 is > 64.5 µM (inactive).

And the IC50 [16]?
Its IC50 is 7.25 µM (active).

What about the AC50 [17] of the same molecule?
The AC50 was 15.8 µM (active).

What about the AC50 [18] of the same molecule?
Its AC50 is 13.8 µM (active).

And the AC50 [19]?
The AC50 was 17 µM (active).
